Several values for one entry are separate records, joined by “and”; a condition that tells them apart may be missing. Equal values may be shown once.
Key:
F98 rat glioma cells = test: In vitro 10B uptake in F98 cells (ICP-AES); type: cell-based; conditions: 24 h incubation in DMEM with 1 mM boron compound
Procedure: (§1) For the in vitro ^10B uptake study, B16 mouse melanoma cells, C6 rat glioma cells, and F98 rat glioma cells were used. B16 and C6 cells were used for in vitro testing at Osaka Prefecture University. Based on results from initial in vitro screening, the in vitro ^10B uptake study using F98 glioma cells were performed at Osaka Medical College. Four hundred thousand cells were seeded in a tissue culture dish (100 × 20 mm; Becton Dickinson, Franklin Lakes, NJ, USA) with DMEM supplemented with 10% FBS and 10% penicillin and streptomycin at 37 °C in a 5% CO2 atmosphere. After incubation for 4 days at 37 °C, the medium was removed, and DMEM with 10% FBS containing 1 mM KA-BSH, BSH, or BPA was added to each dish. The cells were incubated for an additional 24 h at 37 °C. The medium was then removed, and the cells were washed twice with 4 °C phosphate-buffered saline (PBS) and detached with trypsin–ethylenediamine tetraacetic acid solution. PBS was then added, and cells were digested overnight with 1 N nitric acid solution (Wako Pure Chemical Industries, Osaka, Japan), and ^10B uptake was determined by inductively coupled plasma atomic emission spectrometry (ICP-AES) using an iCAP6000 emission spectrometer (Hitachi High-Technologies, Tokyo, Japan).

C6 rat glioma cells = test: In vitro boron uptake in C6 cells; type: cell-based; conditions: Figure S1
Procedure: as §1

F98 glioma bearing rats = test: Biodistribution in F98 glioma bearing rats (ICP-AES); type: in vivo, rat; conditions: iv
Description: All animal experimental procedures were approved by the Animal Use Review Board and Ethical Committee of Osaka Medical College (No. 25092, 28 October 2015) and Kyoto University Research Reactor Institute (KURRI, No. 25030-13, 1 April 2015), and performed following the Guide for the Care and Use of Laboratory Animals. Eight-week-old, male Fischer 344 rats weighing between 200 and 250 g were used (Japan SLC, Inc. Shizuoka, Japan). Rats were anesthetized with an intraperitoneal (ip) injection of a mixture of medetomidine 0.15 mg, midazolam 2 mg, and butorphanol 2.5 mg/kg body weight (bw). The head of each rat was fixed with a stereotactic frame (Model 900; David Kopf Instruments, Tujunga, CA, USA). The scalp was incised at the midline and a small burr hole was drilled into the skull (1 mm posterior and 4 mm right-lateral to the bregma), using an electric drill. And then, F98 glioma cells were injected into the brain using a 25 µL Hamilton microsyringe with a 26-gauge needle (model 1700 RN, Hamilton Bonaduz AG, Bonaduz, Switzerland). The needle was inserted at a 5 mm depth from the skull and F98 cells were diluted in 10 µL of DMEM containing low-gelling temperature agarose at a concentration of either 10^3 for therapeutic experiments or 10^5 cells for biodistribution experiments. They were injected over 30 s using an automatic infuser pump. The needle entry hole was immediately sealed with bone wax and the incised scalp was closed with 3-0 silk sutures (Ethicon, North Ryde, NSW). After surgery, all animals were given atipamezole hydrochloride (0.15 mg/kg bw, ip).
Biodistribution studies were performed in Fischer rats bearing intracerebral implants of F98 rat glioma cells. 10–13 days after tumor implantation of 10^5 F98 glioma cells, when signs of a progressively growing tumor were evident (weight loss, lethargy, hunching, and ataxia), biodistribution studies were initiated at which time the animals had tumors weighing 90–180 mg. […] To compare its biodistribution with that of BPA or BSH, another group of rats received an iv injection of BPA at a concentration of 10 mg ^10B/kg bw or BSH at a concentration of 30 mg ^10B/kg bw. Biodistribution was determined 1 and 3 h after termination of iv injection. Animals were euthanized by an overdose of sevoflurane following which tumors and normal tissues, consisting of ipsilateral brain, contralateral brain, blood, heart, lung, liver, spleen, kidney, skin, and muscle, were removed and weighed for ^10B determination by ICP-AES.

S-(2-(5-hydroxy-4-oxo-4H-pyran-2-yl) methyl) Thioundecahydro-Closo- Dodecaborate (2-) Disodium Salt [KA-BSH]
10B concentration of F98 rat glioma cells (F98 rat glioma cells): 0.821 ± 0.047 µg 10B/10^7 cells
boron uptake into cancer cells (C6 rat glioma cells): taken up into cancer cells
10B concentration, Blood (F98 glioma bearing rats; 10 mg 10B/kg, 1 h): 4.71 µg 10B/g
10B concentration, Contralateral brain (F98 glioma bearing rats; 10 mg 10B/kg, 1 h): 0.24 µg 10B/g
10B concentration, Heart (F98 glioma bearing rats; 10 mg 10B/kg, 1 h): 1.18 µg 10B/g
10B concentration, Ipsilateral brain (F98 glioma bearing rats; 10 mg 10B/kg, 1 h): 0.29 µg 10B/g
10B concentration, Liver (F98 glioma bearing rats; 10 mg 10B/kg, 1 h): 5.15 µg 10B/g
10B concentration, Lung (F98 glioma bearing rats; 10 mg 10B/kg, 1 h): 4.31 µg 10B/g
10B concentration, Muscle (F98 glioma bearing rats; 10 mg 10B/kg, 1 h): 0.63 µg 10B/g
10B concentration, Skin (F98 glioma bearing rats; 10 mg 10B/kg, 1 h): 1.79 µg 10B/g
10B concentration, Spleen (F98 glioma bearing rats; 10 mg 10B/kg, 1 h): 14.34 µg 10B/g
10B concentration, Tumor (F98 glioma bearing rats; 10 mg 10B/kg, 1 h): 1.42 µg 10B/g and 1.42 ± 0.28 µg 10B/g
T/Bl (tumor to blood ratio) (F98 glioma bearing rats; 10 mg 10B/kg, 1 h): 0.31
T/Br (tumor to normal contralateral brain ratio) (F98 glioma bearing rats; 10 mg 10B/kg, 1 h): 5.99
10B concentration, Blood (F98 glioma bearing rats; 10 mg 10B/kg, 3 h): 1.26 µg 10B/g
10B concentration, Contralateral brain (F98 glioma bearing rats; 10 mg 10B/kg, 3 h): 0.09 µg 10B/g
10B concentration, Heart (F98 glioma bearing rats; 10 mg 10B/kg, 3 h): 0.29 µg 10B/g
10B concentration, Ipsilateral brain (F98 glioma bearing rats; 10 mg 10B/kg, 3 h): 0.10 µg 10B/g
10B concentration, Liver (F98 glioma bearing rats; 10 mg 10B/kg, 3 h): 4.13 µg 10B/g
10B concentration, Lung (F98 glioma bearing rats; 10 mg 10B/kg, 3 h): 0.74 µg 10B/g
10B concentration, Muscle (F98 glioma bearing rats; 10 mg 10B/kg, 3 h): 0.19 µg 10B/g
10B concentration, Skin (F98 glioma bearing rats; 10 mg 10B/kg, 3 h): 0.45 µg 10B/g
10B concentration, Spleen (F98 glioma bearing rats; 10 mg 10B/kg, 3 h): 16.07 µg 10B/g
10B concentration, Tumor (F98 glioma bearing rats; 10 mg 10B/kg, 3 h): 0.85 µg 10B/g
T/Bl (tumor to blood ratio) (F98 glioma bearing rats; 10 mg 10B/kg, 3 h): 0.69
T/Br (tumor to normal contralateral brain ratio) (F98 glioma bearing rats; 10 mg 10B/kg, 3 h): 9.52
10B concentration, Blood (F98 glioma bearing rats; 20 mg 10B/kg, 1 h): 8.76 µg 10B/g
10B concentration, Contralateral brain (F98 glioma bearing rats; 20 mg 10B/kg, 1 h): 0.24 µg 10B/g
10B concentration, Heart (F98 glioma bearing rats; 20 mg 10B/kg, 1 h): 2.10 µg 10B/g
10B concentration, Ipsilateral brain (F98 glioma bearing rats; 20 mg 10B/kg, 1 h): 0.31 µg 10B/g
10B concentration, Liver (F98 glioma bearing rats; 20 mg 10B/kg, 1 h): 10.25 µg 10B/g
10B concentration, Lung (F98 glioma bearing rats; 20 mg 10B/kg, 1 h): 6.11 µg 10B/g
10B concentration, Muscle (F98 glioma bearing rats; 20 mg 10B/kg, 1 h): 2.35 µg 10B/g
10B concentration, Skin (F98 glioma bearing rats; 20 mg 10B/kg, 1 h): 3.56 µg 10B/g
10B concentration, Spleen (F98 glioma bearing rats; 20 mg 10B/kg, 1 h): 10.30 µg 10B/g
10B concentration, Tumor (F98 glioma bearing rats; 20 mg 10B/kg, 1 h): 2.96 µg 10B/g
T/Bl (tumor to blood ratio) (F98 glioma bearing rats; 20 mg 10B/kg, 1 h): 0.34
T/Br (tumor to normal contralateral brain ratio) (F98 glioma bearing rats; 20 mg 10B/kg, 1 h): 13.21
10B concentration, Blood (F98 glioma bearing rats; 20 mg 10B/kg, 3 h): 1.54 µg 10B/g
10B concentration, Contralateral brain (F98 glioma bearing rats; 20 mg 10B/kg, 3 h): 0.09 µg 10B/g
10B concentration, Heart (F98 glioma bearing rats; 20 mg 10B/kg, 3 h): 0.39 µg 10B/g
10B concentration, Ipsilateral brain (F98 glioma bearing rats; 20 mg 10B/kg, 3 h): 0.14 µg 10B/g
10B concentration, Liver (F98 glioma bearing rats; 20 mg 10B/kg, 3 h): 5.40 µg 10B/g
10B concentration, Lung (F98 glioma bearing rats; 20 mg 10B/kg, 3 h): 1.37 µg 10B/g
10B concentration, Muscle (F98 glioma bearing rats; 20 mg 10B/kg, 3 h): 0.24 µg 10B/g
10B concentration, Skin (F98 glioma bearing rats; 20 mg 10B/kg, 3 h): 0.57 µg 10B/g
10B concentration, Spleen (F98 glioma bearing rats; 20 mg 10B/kg, 3 h): 8.44 µg 10B/g
10B concentration, Tumor (F98 glioma bearing rats; 20 mg 10B/kg, 3 h): 1.47 µg 10B/g
T/Bl (tumor to blood ratio) (F98 glioma bearing rats; 20 mg 10B/kg, 3 h): 1.12
T/Br (tumor to normal contralateral brain ratio) (F98 glioma bearing rats; 20 mg 10B/kg, 3 h): 21.07
10B concentration in blood (F98 glioma bearing rats; 30 mg 10B/kg, 1 h): 14.21 ± 3.17 µg/mL
10B concentration, Blood (F98 glioma bearing rats; 30 mg 10B/kg, 1 h): 14.21 µg 10B/g
10B concentration, Contralateral brain (F98 glioma bearing rats; 30 mg 10B/kg, 1 h): 0.45 µg 10B/g
10B concentration, Heart (F98 glioma bearing rats; 30 mg 10B/kg, 1 h): 3.45 µg 10B/g
10B concentration, Ipsilateral brain (F98 glioma bearing rats; 30 mg 10B/kg, 1 h): 0.63 µg 10B/g
10B concentration, Liver (F98 glioma bearing rats; 30 mg 10B/kg, 1 h): 10.33 ± 2.61 µg 10B/g and 10.33 µg 10B/g
10B concentration, Lung (F98 glioma bearing rats; 30 mg 10B/kg, 1 h): 9.27 µg 10B/g
10B concentration, Muscle (F98 glioma bearing rats; 30 mg 10B/kg, 1 h): 2.26 µg 10B/g
10B concentration, Skin (F98 glioma bearing rats; 30 mg 10B/kg, 1 h): 7.25 µg 10B/g
10B concentration, Spleen (F98 glioma bearing rats; 30 mg 10B/kg, 1 h): 3.77 µg 10B/g
10B concentration, Tumor (F98 glioma bearing rats; 30 mg 10B/kg, 1 h): 6.65 µg 10B/g and 6.65 ± 0.25 µg 10B/g
T/Bl (tumor to blood ratio) (F98 glioma bearing rats; 30 mg 10B/kg, 1 h): 0.49
T/Br (tumor to normal contralateral brain ratio) (F98 glioma bearing rats; 30 mg 10B/kg, 1 h): 15.27
10B concentration in blood (F98 glioma bearing rats; 30 mg 10B/kg, 3 h): 2.35 ± 1.37 µg/mL
10B concentration, Blood (F98 glioma bearing rats; 30 mg 10B/kg, 3 h): 2.35 µg 10B/g
10B concentration, Contralateral brain (F98 glioma bearing rats; 30 mg 10B/kg, 3 h): 0.14 µg 10B/g
10B concentration, Heart (F98 glioma bearing rats; 30 mg 10B/kg, 3 h): 0.56 µg 10B/g
10B concentration, Ipsilateral brain (F98 glioma bearing rats; 30 mg 10B/kg, 3 h): 0.35 µg 10B/g
10B concentration, Liver (F98 glioma bearing rats; 30 mg 10B/kg, 3 h): 4.19 ± 1.79 µg 10B/g and 4.19 µg 10B/g
10B concentration, Lung (F98 glioma bearing rats; 30 mg 10B/kg, 3 h): 2.26 µg 10B/g
10B concentration, Muscle (F98 glioma bearing rats; 30 mg 10B/kg, 3 h): 0.32 µg 10B/g
10B concentration, Skin (F98 glioma bearing rats; 30 mg 10B/kg, 3 h): 1.06 µg 10B/g
10B concentration, Spleen (F98 glioma bearing rats; 30 mg 10B/kg, 3 h): 5.68 µg 10B/g
10B concentration, Tumor (F98 glioma bearing rats; 30 mg 10B/kg, 3 h): 2.91 µg 10B/g
T/Bl (tumor to blood ratio) (F98 glioma bearing rats; 30 mg 10B/kg, 3 h): 1.58
T/Br (tumor to normal contralateral brain ratio) (F98 glioma bearing rats; 30 mg 10B/kg, 3 h): 23.09
clearance from normal tissues (F98 glioma bearing rats; 1 vs 3 h): rapid clearance from normal tissues
10B Concentrations, Brain (Table 1) (F98 glioma bearing rats; 1 h, used for dose estimation): 0.3 μg 10B/g
10B Concentrations, Tumor (Table 1) (F98 glioma bearing rats; 1 h, used for dose estimation): 1.4 μg 10B/g

From PMC7349888, “Synthesis and Evaluation of Dodecaboranethiol Containing Kojic Acid (KA-BSH) as a Novel Agent for Boron Neutron Capture Therapy” (Cells, 2020)
